Patent US20090220621A1, “Pharmaceutical compositions of a non-enteric coated proton pump inhibitor with a carbonate salt and bicarbonate salt combination” (priority 2000, published 2009)
Where “and” joins values, the source holds several entries; their conditions need not be identical. Equal values may be shown once.

Tests used:
Format in all cases: physicochemical
[1] = Gas and CO2 generated by neutralization of simulated gastric fluid (Orsat apparatus, standard CO2 assay)
From the text: To quantify the gas produced by the neutralization of simulated gastric fluid ([…]) by carbicarb and by sodium bicarbonate in vitro, a standard CO2 assay technique was utilized (see USP 24-NF 19 Beta, The United States Pharmacopeia 2000, p. 306)
(§1) Aqueous solutions to be tested were made up from starting materials sodium carbonate, (anhydrous, available from Mallinckrodt) and sodium bicarbonate (available from Mallinckrodt). An 8.4% sodium bicarbonate solution and an 8.4% carbicarb solution (containing equimolar amounts of sodium bicarbonate and sodium carbonate) were tested as follows.
The specimen gas was generated by reacting either 450 mL simulated gastric fluid (SGF) with 50 mL of the carbicarb solution; or by reacting 45 ml of simulated gastric fluid with 5 ml of sodium bicarbonate solution in a 500 mL Erlenmeyer flask.
To make Simulated Gastric Fluid (SGF) 1 g sodium chloride was transferred to a 500-mL volumetric flask. After adding 1.6 g pepsin, 25 mL 2 N hydrochloric acid was added and swirled to mix. The resultant solution could then be diluted to the appropriate volume with water.
The amount of gas generated in a twenty-minute time period was measured in an Orsat Glass Vapor Absorption Apparatus, by the standard assay technique. Two tests were run for each solution. The volume of CO2 generated was calculated from the difference in the initial volume of gas produced (ml) and the final volume of gas remaining (ml).

[2] = Titration of simulated gastric fluid with acid neutralizer solution (gastric acid neutralizing capacity); settings: 50 mL SGF
Experimental: To determine and compare the gastric acid neutralizing capacity of sodium bicarbonate solution to carbicarb solution, the following experiment was performed.
as §1
50 mL simulated gastric fluid (SGF, prepared according to the procedure described in Example 1) was pipetted into an Erlenmeyer flask. Four drops of methyl red, then four drops of phenolphthalein were then added to the flask. The pH of solution was monitored with a pH electrode. The solution to be tested was added to a 5-mL buret. The gastric media in the flask was then titrated with the test solution to an endpoint within 0.2 pH units of pH 6.5 (as indicated by the color change and pH reading). Then, titration was resumed, to an endpoint within 0.2 pH units of pH 8.0 (as indicated by the color change and pH reading).

[3] = Stability of lansoprazole in simulated gastric fluid with and without carbicarb (chromatographic assay); settings: for % labeled amount of lansoprazole remaining: Sample in water; for % of the drug degraded: at 60 minutes in SGF
Experimental: Lansoprazole degrades in acid and is stable in base. This study was performed to determine 1) how quickly lansoprazole degrades in simulated gastric fluid (SGF); and 2) whether a high pH-buffering agent (carbicarb which is an equimolar mixture of sodium carbonate and sodium bicarbonate) could be used to retard the degradation of lansoprazole in SGF. All the experiments were conducted at room temperature (22° C.±2° C.).
The PPI test sample included lansoprazole (30 mg); mannitol (60 mg), meglumine (30 mg) and sodium hydroxide (3 mg).
Then 5.0 mL 2 N sodium hydroxide solution was added to the 0-minutes beaker with mixing. To each of the 5 remaining beakers, 10.0 mL of 8.4% carbicarb solution was added and stirred to mix. At the appropriate time interval (corresponding to the individual beaker numbers), 5.0 mL 2 N sodium hydroxide solution was added to stop the reaction. A portion of the resulting solution was diluted with pH 10 diluent. 10 μL of the resulting solution was then injected into the chromatographic system for assay.
Granular formulations of lansoprazole, including carbicarb were also made and tested. The stability of the granular formulations was tested according to the procedure of Example 3. The granular formulations of lansoprazole for this example were prepared as follows.
The coherent mass containing lansoprazole, carbicarb, lactose and sucrose solution was prepared as described above, in Example 3. This coherent mass was passed through a 20-mesh screen and the resulting granules were dried at 50° C. for 12 hours. Granules containing 30-mg lansoprazole were transferred to an amber color container along with and an equal weight of flavor granules. 10 ml of water ((HPLC grade, Fisher Scientific, Pittsburgh, Pa.) was added to the container with gentle shaking to reconstitute the suspension. The resulting suspension of lansoprazole was tested for stability in simulated gastric fluid as described earlier in Experiment 3.

[4] = 450 mL SGF and 50 mL test solution, ten times the 45 mL/5 mL values

| Volume of CO2 ([1]; 45 mL SGF and 5 mL test solution, initial minus residual gas volume) | Initial Gas Volume [1, 4] | Volume of CO2 [1, 4] | Volume of Acid Neutralizer Solution Required ([2]; pH after adding neutralizer 7.0) [mL] | Volume of Acid Neutralizer Solution Required ([2]; pH after adding neutralizer 8.0) [mL] | Volume of Acid Neutralizer Solution Required ([2]; pH of simulated gastric fluid after adding neutralizer 1.2) [mL] | % labeled amount of lansoprazole remaining ([3]; time in SGF 30 minutes) [%] | % labeled amount of lansoprazole remaining ([3]; time in SGF 45 minutes) [%] | % labeled amount of lansoprazole remaining ([3]; time in SGF 60 minutes) [%] | % of the drug degraded ([3]; constituted with carbicarb solution) [%] | % of the drug degraded ([3]; reconstituted with water) [%] | SMILES |
| --- | --- | --- | --- | --- | --- | --- | --- | --- | --- | --- | --- |
| 2.9 mL and 5.3 mL | 930.0 mL and 820.0 mL | 29.0 mL and 53.0 mL | 5.00 | 6.20 | 0 | – | – | – | – | – | O=C([O-])O.[Na+] [8.4% sodium bicarbonate solution, sodium bicarbonate] |
| – | – | – | – | – | – | 4.1 | 2.7 | 2.0 | 3.5 | 98 | Cc1c(OCC(F)(F)F)ccnc1C[S+]([O-])c1nc2ccccc2[nH]1 (centres unmarked) [lansoprazole] |
